From patent US9133115B2 (ACHILLION PHARMACEUTICALS, INC., priority 2008, dated 2015)

Each molecule was assayed on HCV replicon (assay: HCV replicon replication assay (NPT ELISA) in Huh-7 replicon-containing cells). Conditions: Hepatitis C virus, 72 h; HCV replicon in Huh-7 cells, three days incubation; read-out: EC50.
Type: cell-based
Method in brief: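 Huh-7 cells carrying a bicistronic HCV replicon (HCV-IRES-neo, EMCV-IRES-driven NS3–NS5B, 3′-NTR) were seeded at 6000-7500 cells/well, grown 24 h to 60-70% confluence, then treated with graded compound concentrations. Replication was read as NPT level by capture ELISA (rabbit anti-NPTII, Eu-N1 secondary); interferon alpha served as positive control.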

| Structure (SMILES) | EC50 [nM] |
| --- | --- |
| COc1ccc2c(O[C@@H]3C[C@@H](C(=O)N[C@H](C(=O)NS(=O)(=O)C4CC4)c4ccccc4)N(C(=O)[C@@H](CC(=O)N4CCCCC4)C(C)(C)C)C3)cc(-c3ccccc3)nc2c1 [Compound 112, (2S,4R)-1-((S)-2-tert-butyl-4-oxo-4-(piperidin-1-yl)butanoyl)-N-((S)-2-(cyclopropane-sulfonamido)-2-oxo-1-phenylethyl)-4-(7-methoxy-2-phenylquinolin-4-yloxy)pyrrolidine-2-carboxamide] | 1000 to 10000 |
| CCC[C@H](NC(=O)[C@@H]1C[C@@H](Oc2cc(-c3ccccc3)nc3cc(OC)ccc23)CN1C(=O)[C@@H](CC(=O)N1CCCCC1)C(C)(C)C)C(=O)NS(=O)(=O)C1CC1 [Compound 113, (2S,4R)-1-((S)-2-tert-butyl-4-oxo-4-(piperidin-1-yl)butanoyl)-N-((S)-1-(cyclopropanesulfon-amido)-1-oxopentan-2-yl)-4-(7-methoxy-2-phenylquinolin-4-yloxy)pyrrolidine-2-carboxamide] | 1000 to 10000 |
| COc1ccc2c(O[C@@H]3C[C@@H](C(=O)N[C@@H](C)C(=O)NS(=O)(=O)C4CC4)N(C(=O)[C@@H](CC(=O)N4CCCCC4)C(C)(C)C)C3)cc(-c3ccccc3)nc2c1 [Compound 114, (2S,4R)-1-((S)-2-tert-butyl-4-oxo-4-(piperidin-1-yl)butanoyl)-N-((S)-1-(cyclopropanesulfon-amido)-1-oxopropan-2-yl)-4-(7-methoxy-2-phenylquinolin-4-yloxy)pyrrolidine-2-carboxamide] | 1000 to 10000 |
| COc1ccc2c(O[C@@H]3C[C@@H](C(=O)N[C@H](C(=O)NS(=O)(=O)C4CC4)C(C)(C)C)N(C(=O)[C@@H](CC(=O)N4CCCCC4)C(C)(C)C)C3)cc(-c3ccccc3)nc2c1 [Compound 115, (2S,4R)-1-((S)-2-tert-butyl-4-oxo-4-(piperidin-1-yl)butanoyl)-N-((S)-1-(cyclopropanesulfon-amido)-3,3-dimethyl-1-oxobutan-2-yl)-4-(7-methoxy-2-phenylquinolin-4-yloxy)pyrrolidine-2-carboxamide] | 1000 to 10000 |
| CC[C@@H](NC(=O)[C@@H]1C[C@@H](Oc2cc(-c3ccccc3)nc3cc(OC)ccc23)CN1C(=O)[C@@H](CC(=O)N1CCCCC1)C(C)(C)C)C(=O)NS(=O)(=O)C1CC1 [Compound 116, (2S,4R)-1-((S)-2-tert-butyl-4-oxo-4-(piperidin-1-yl)butanoyl)-N-((R)-1-(cyclopropanesulfon-amido)-1-oxobutan-2-yl)-4-(7-methoxy-2-phenylquinolin-4-yloxy)pyrrolidine-2-carboxamide] | 1000 to 10000 |
| CCC[C@@H](NC(=O)[C@@H]1C[C@@H](Oc2cc(-c3ccccc3)nc3cc(OC)ccc23)CN1C(=O)[C@@H](CC(=O)N1CCCCC1)C(C)(C)C)C(=O)NS(=O)(=O)C1CC1 [Compound 117, (2S,4R)-1-((S)-2-tert-butyl-4-oxo-4-(piperidin-1-yl)butanoyl)-N-((R)-1-(cyclopropanesulfon-amido)-1-oxopentan-2-yl)-4-(7-methoxy-2-phenylquinolin-4-yloxy)pyrrolidine-2-carboxamide] | 1000 to 10000 |
| COc1ccc2c(O[C@@H]3C[C@@H](C(=O)N[C@@H](C(=O)NS(=O)(=O)C4CC4)C(C)C)N(C(=O)[C@@H](CC(=O)N4CCCCC4)C(C)(C)C)C3)cc(-c3ccccc3)nc2c1 [Compound 118, (2S,4R)-1-((S)-2-tert-butyl-4-oxo-4-(piperidin-1-yl)butanoyl)-N-((R)-1-(cyclopropanesulfon-amido)-3-methyl-1-oxobutan-2-yl)-4-(7-methoxy-2-phenylquinolin-4-yloxy)pyrrolidine-2-carboxamide] | 1000 to 10000 |
| C=C[C@@H]1C[C@]1(NC(=O)[C@@H]1C[C@@H](Oc2cc(-c3ccccc3)nc3cc(OC)ccc23)CN1C(=O)[C@@H](CC(=O)N1CCC(F)(F)CC1)C(C)(C)C)C(=O)NS(=O)(=O)C1CC1 [Compound 119, (2S,4R)-1-((S)-2-tert-butyl-4-(4,4-difluoropiperidin-1-yl)-4-oxobutanoyl)-N-((1R,2S)-1-(cyclopropylsulfonyl-carbamoyl)-2-vinylcyclopropyl)-4-(7-methoxy-2-phenylquinolin-4-yloxy)pyrrolidine-2-carboxamide] | < 1000 |
| C=C[C@@H]1C[C@]1(NC(=O)[C@@H]1C[C@@H](Oc2cc(-c3ccccc3)nc3cc(OC)ccc23)CN1C(=O)[C@@H](CC(=O)N1CCCCC1)C(C)(C)C)C(=O)NS(=O)(=O)CC [Compound 120, (2S,4R)-1-((S)-2-tert-butyl-4-oxo-4-(piperidin-1-yl)butanoyl)-N-((1R,2S)-1-(ethyl-sulfonylcarbamoyl)-2-vinylcyclopropyl)-4-(7-methoxy-2-phenylquinolin-4-yloxy)pyrrolidine-2-carboxamide] | < 1000 |
| C=C[C@@H]1C[C@]1(NC(=O)[C@@H]1C[C@@H](Oc2cc(-c3ccccc3)nc3cc(OC)ccc23)CN1C(=O)[C@@H](CC(=O)N1CCCCC1)C1CC1)C(=O)NS(=O)(=O)C1CC1 [Compound 121, (2S,4R)-1-((S)-2-cyclopropyl-4-oxo-4-(piperidin-1-yl)butanoyl)-N-((1R,2S)-1-(cyclopropylsulfonyl-carbamoyl)-2-vinylcyclopropyl)-4-(7-methoxy-2-phenylquinolin-4-yloxy)pyrrolidine-2-carboxamide] | < 1000 |
| C=C[C@@H]1C[C@]1(NC(=O)[C@@H]1C[C@@H](Oc2nc(-c3ccccn3)nc3ccsc23)CN1C(=O)[C@@H](CC(=O)N1CCCCC1)C(C)(C)C)C(=O)NS(=O)(=O)C1CC1 [Compound 122, (2S,4R)-1-((S)-2-tert-butyl-4-oxo-4-(piperidin-1-yl)butanoyl)-N-((1R,2S)-1-(cyclopropylsulfonyl-carbamoyl)-2-vinylcyclopropyl)-4-(2-(pyridin-2-yl)thieno[3,2-d]pyrimidin-4-yloxy)pyrrolidine-2-carboxamide] | 1000 to 10000 |
| C=C[C@@H]1C[C@]1(NC(=O)[C@@H]1C[C@@H](OC(=O)N2c3ccccc3Sc3ccccc32)CN1C(=O)[C@@H](CC(=O)N1CCCCC1)C(C)(C)C)C(=O)NS(=O)(=O)C1CC1 [Compound 123, (3R,5S)-1-((S)-2-tert-butyl-4-oxo-4-(piperidin-1-yl)butanoyl)-5-((1R,2S)-1-(cyclopropylsulfonyl-carbamoyl)-2-vinyl-cyclopropylcarbamo-yl)pyrrolidin-3-yl 10H-phenothiazine-10-carboxylate] | 1000 to 10000 |
| C=C[C@@H]1C[C@]1(NC(=O)[C@@H]1C[C@@H](Oc2cc(-c3ccccc3)nc3cc(OC)ccc23)CN1C(=O)[C@@H](CC(=O)N1CCCCC1)CC1CC1)C(=O)NS(=O)(=O)C1CC1 [Compound 124, (2S,4R)-1-((R)-2-(cyclopropylmethyl)-4-oxo-4-(piperidin-1-yl)butanoyl)-N-((1R,2S)-1-(cyclopropylsulfonyl-carbamoyl)-2-vinylcyclopropyl)-4-(7-methoxy-2-phenylquinolin-4-yloxy)pyrrolidine-2-carboxamide] | < 1000 |
| C=C[C@@H]1C[C@]1(NC(=O)[C@@H]1C[C@@H](Oc2cc(-c3ccccc3)nc3cc(OC)ccc23)CN1C(=O)[C@@H](CC(=O)N1CCCCC1c1nc2cc(F)ccc2[nH]1)C(C)(C)C)C(=O)NS(=O)(=O)C1CC1 (stereo partly drawn) [Compound 125, (2S,4R)-1-((2S)-2-tert-butyl-4-(2-(5-fluoro-1H-benzo[d]imidazol-2-yl)piperidin-1-yl)-4-oxobutanoyl)-N-((1R,2S)-1-(cyclo-propylsulfonyl-carbamoyl)-2-vinylcyclopropyl)-4-(7-methoxy-2-phenylquinolin-4-yloxy)pyrrolidine-2-carboxamide] | < 1000 |
| C=C[C@@H]1C[C@]1(NC(=O)[C@@H]1C[C@@H](Oc2cc(-c3ccccc3)nc3cc(OC)ccc23)CN1C(=O)[C@@H](CC(=O)n1c(C2CCCCN2)nc2cc(F)ccc21)C(C)(C)C)C(=O)NS(=O)(=O)C1CC1 (stereo partly drawn) [Compound 126, (2S,4R)-1-((2S)-2-tert-butyl-4-(5-fluoro-2-(piperidin-2-yl)-1H-benzo[d]imidazol-1-yl)-4-oxobutanoyl)-N-((1R,2S)-1-(cyclo-propylsulfonyl-carbamoyl)-2-vinylcyclopropyl)-4-(7-methoxy-2-phenylquinolin-4-yloxy)pyrrolidine-2-carboxamide] | < 1000 |
| CC(C)(C)[C@H](CC(=O)N1CCCCC1)C(=O)N1C[C@H](n2cnc3ccccc32)C[C@H]1C(=O)NCC(=O)NS(=O)(=O)C1CC1 [Compound 127, (2S,4R)-4-(1H-benzo[d]imidazol-1-yl)-1-((S)-2-tert-butyl-4-oxo-4-(piperidin-1-yl)butanoyl)-N-(2-(cyclopropane-sulfonamido)-2-oxoethyl)pyr-rolidine-2-carboxamide] | 1000 to 10000 |
| C=C[C@@H]1C[C@]1(NC(=O)[C@@H]1C[C@@H](n2nnc(-c3ccccc3)c2-c2ccccc2)CN1C(=O)[C@@H](CC(=O)N1CCCCC1)C(C)(C)C)C(=O)NS(=O)(=O)C1CC1 [Compound 128, (2S,4R)-1-((S)-2-tert-butyl-4-oxo-4-(piperidin-1-yl)butanoyl)-N-((1R,2S)-1-(cyclo-propylsulfonyl-carbamoyl)-2-vinylcyclopropyl)-4-(4,5-diphenyl-1H-1,2,3-triazol-1-yl)pyrrolidine-2-carboxamide] | 1000 to 10000 |
| C=C[C@@H]1C[C@]1(NC(=O)[C@@H]1C[C@@H](OC(=O)N(c2ccccc2)c2ccccc2)CN1C(=O)[C@@H](CC(=O)N1CCCCC1)C(C)(C)C)C(=O)NS(=O)(=O)C1CC1 [Compound 129, (3R,5S)-1-((S)-2-tert-butyl-4-oxo-4-(piperidin-1-yl)butanoyl)-5-((1R,2S)-1-(cyclopropylsulfon-ylcarbamoyl)-2-vinylcyclopropyl-carbamoyl)pyr-rolidin-3-yl diphenylcarbamate] | 1000 to 10000 |
